Test results taken from PubChem BioAssay AID2060509 (Molecular Pharmacology Branch, DTP, NCI, 2025).

Tested on: 485176-168-R4-J1-PDC spheroids with HUVEC/MSC, viability
Experiment: Anticancer human tumor 485176-168-R4-J1-PDC patient-derived pancreatic adenocarcinoma cell line growth inhibition [GQUAD]
Conditions: for IC50: curve of first compound; for viability, T/C: stronger effect = lower value
Description: DNA G-quadruplex Stabilizer Agents in Combinations in Complex Spheroids
A high-throughput screen of multi-cell type tumor spheroids was designed to identify active combinations of DNA G-quadruplex stabilizer agents and targeted small molecules. Complex spheroids include a stromal component modeled by human endothelial cells (HUVEC) and fibroblasts modeled by human mesenchymal stem cells (MSCs). The concentration ranges selected for each drug and investigational agent were based upon clinically achievable concentrations if the clinical Cmax of the agent was known.
Compounds. The drugs and investigational agents: pidnarulex (CX-5461; NSC782164), APTO-253 (NSC789042), BRACO-19 (NSC847499), peposertib (NSC802822), ceralasertib (NSC780249), elimusertib (NSC800525), camonsertib (NSC841442), AZD-1390 (NSC803789), olaparib (NSC753686), talazoparib (NSC767125), ART-558 (NSC835418), sotorasib (NSC818433), MRTX-1133 (NSC836407), SN-38 (NSC673596), topotecan (NSC609699), etoposide (NSC141540), doxorubicin (NSC123127), gemcitabine (NSC613327), 5-fluorouracil (NSC19893), paclitaxel (NSC125973), vemurafenib (NSC761431), panobinostat (NSC761190), R-306465 (JNJ-16241199; NSC773264), adavosertib (NSC754352), TP-3654 (NSC805149), carboplatin (NSC241240), KSQ-4279 (NSC840948), and staurosporine (NSC755774) were obtained from the National Cancer Institute (NCI) Developmental Therapeutics Program Chemical Repository (34). The FDA-approved anticancer drug set is available from the NCI Developmental Therapeutics Program. […] The stock solutions were prepared in dimethyl sulfoxide (DMSO, Sigma-Aldrich, St. Louis, MO, cat. D2650) at 800-fold the tested concentration and stored at -70 degrees C prior to their use. All drugs and investigational agents were tested over a range starting from a high concentration at or near the clinical Cmax and decreasing in half-log increments. If the clinical Cmax for an agent had not been determined, the highest concentration tested was 10 microM.
2.3 Cell Culture. All cells were maintained in an incubator at 37 degrees C and 5% CO2 with 95% humidity. The PDC lines were cultured according to standard operating procedures established by the NCI PDMR. All PDCs were thawed and cultured in Matrigel-coated flasks prepared with a working solution of 1X Ham's F-12 nutrient mix, without supplementation (Invitrogen, cat. 11765054), 100 U/mL penicillin-streptomycin (Invitrogen, cat. 15140122), and 2.5% Matrigel (Corning Inc., cat. 354248) for the first three passages. The 857933-349-R-J2-PDC line was cultured in 6C/Colon 1B media, which includes advanced DMEM/F-12 (Thermo Fisher Scientific, cat. 12634028), 10 mM HEPES (Thermo Fisher Scientific, cat. 15630080), 1X GlutaMAX supplement (Thermo Fisher Scientific, cat. 35050061), 0.1 mg/mL primocin (InvivoGen, cat. ant-pm-2), 10% defined fetal bovine serum, heat inactivated (HyClone Laboratories Inc., cat. SH30070.03HI), 50% L-WRN conditioned media (ATCC, cat. CRL-3276), 1.25 mM N-Acetyl-L-cysteine (Sigma-Aldrich, cat. A9165), 10 mM nicotinamide (Sigma-Aldrich, cat. N0636), 1X B-27 supplement (Thermo Fisher Scientific, cat. 17504044), 1X N-2 supplement (Thermo Fisher Scientific, cat. 17502048), 10 microM Y-27632 dihydrochloride (Tocris Bioscience, cat. 1254), and 50 ng/mL human EGF recombinant protein (Thermo Fisher Scientific, cat. PHG0311). The 485176-168-R4-J1-PDC line was cultured in Panc media, which includes all 6C/Colon 1B media components plus 100 ng/mL human FGF-10 (Thermo Fisher Scientific, cat. 100-26), 500 nM SB-431542 (Selleckchem, cat. S1067), and gastrin (Tocris, cat. 3006).
[…]

[1] = second compound 0.0316 µM, first compound 0.0316 µM
[2] = second compound 0.0316 µM, first compound 0.316 µM
[3] = second compound 0.1 µM, first compound 0.0316 µM
[4] = second compound 0.1 µM, first compound 0.316 µM
[5] = second compound 0.316 µM, first compound 0.0316 µM
[6] = second compound 0.316 µM, first compound 0.316 µM
[7] = second compound 1 µM, first compound 0.0316 µM
[8] = second compound 1 µM, first compound 0.316 µM
[9] = second compound 3.16 µM, first compound 0.0316 µM
[10] = second compound 3.16 µM, first compound 0.316 µM
[11] = second compound 10 µM, first compound 0.0316 µM
[12] = second compound 10 µM, first compound 0.316 µM
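Also: spheroids exposed to compounds for seven days before readout.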
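For viability, T/C in this document: percent viability relative to DMSO vehicle control wells as 100%.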

Cc1[nH]c2ccccc2c1CCNCc1ccc(/C=C/C(=O)NO)cc1 + Cc1cnc(CNC(=O)c2c(=O)c3ccc(N4CCCN(C)CC4)nc3n3c2sc2ccccc23)cn1
IC50 (second compound 0.0316 µM): 94 nM
IC50 (second compound 0.1 µM): 39.2 nM
IC50 (second compound 0.316 µM): 11 nM
IC50 (second compound 1 µM): < 0.999 nM
IC50 (second compound 3.16 µM): < 0.999 nM
IC50 (second compound 10 µM): < 0.999 nM
viability, T/C (second compound 0.0316 µM, first compound 0.000999 µM): 99.4%
viability, T/C (second compound 0.0316 µM, first compound 0.00316 µM): 74.4%
viability, T/C (second compound 0.0316 µM, first compound 0.00999 µM): 85.6%
viability, T/C [1]: 60.5%
viability, T/C (second compound 0.0316 µM, first compound 0.0999 µM): 57.5%
viability, T/C [2]: 12.1%
viability, T/C (second compound 0.1 µM, first compound 0.000999 µM): 74.5%
viability, T/C (second compound 0.1 µM, first compound 0.00316 µM): 89.6%
viability, T/C (second compound 0.1 µM, first compound 0.00999 µM): 49.4%
viability, T/C [3]: 51.7%
viability, T/C (second compound 0.1 µM, first compound 0.0999 µM): 44.3%
viability, T/C [4]: 9.46%
viability, T/C (second compound 0.316 µM, first compound 0.000999 µM): 63.3%
viability, T/C (second compound 0.316 µM, first compound 0.00316 µM): 59.6%
viability, T/C (second compound 0.316 µM, first compound 0.00999 µM): 53.5%
viability, T/C [5]: 35.3%
viability, T/C (second compound 0.316 µM, first compound 0.0999 µM): 27.2%
viability, T/C [6]: 6.34%
viability, T/C (second compound 1 µM, first compound 0.000999 µM): 44.6%
viability, T/C (second compound 1 µM, first compound 0.00316 µM): 52.6%
viability, T/C (second compound 1 µM, first compound 0.00999 µM): 45.4%
viability, T/C [7]: 30.7%
viability, T/C (second compound 1 µM, first compound 0.0999 µM): 23.8%
viability, T/C [8]: 0.94%
viability, T/C (second compound 3.16 µM, first compound 0.000999 µM): 47.2%
viability, T/C (second compound 3.16 µM, first compound 0.00316 µM): 39.2%
viability, T/C (second compound 3.16 µM, first compound 0.00999 µM): 45%
viability, T/C [9]: 33.1%
viability, T/C (second compound 3.16 µM, first compound 0.0999 µM): 14%
viability, T/C [10]: 0.27%
viability, T/C (second compound 10 µM, first compound 0.000999 µM): 36.2%
viability, T/C (second compound 10 µM, first compound 0.00316 µM): 37.5%
viability, T/C (second compound 10 µM, first compound 0.00999 µM): 32.5%
viability, T/C [11]: 26.5%
viability, T/C (second compound 10 µM, first compound 0.0999 µM): 11.1%
viability, T/C [12]: 0.69%

O=C(NO)c1cnc(N2CCN(S(=O)(=O)c3ccc4ccccc4c3)CC2)nc1 + Cc1cnc(CNC(=O)c2c(=O)c3ccc(N4CCCN(C)CC4)nc3n3c2sc2ccccc23)cn1
IC50 (second compound 0.0316 µM): 322 nM
IC50 (second compound 0.1 µM): 185 nM
IC50 (second compound 0.316 µM): 132 nM
IC50 (second compound 1 µM): < 31.6 nM
IC50 (second compound 3.16 µM): < 31.6 nM
IC50 (second compound 10 µM): < 31.6 nM
viability, T/C [1]: 81%
viability, T/C (second compound 0.0316 µM, first compound 0.1 µM): 62.6%
viability, T/C [2]: 53.3%
viability, T/C (second compound 0.0316 µM, first compound 1 µM): 8.83%
viability, T/C (second compound 0.0316 µM, first compound 3.16 µM): 0.53%
viability, T/C (second compound 0.0316 µM, first compound 10 µM): 0.27%
viability, T/C [3]: 66.3%
viability, T/C (second compound 0.1 µM, first compound 0.1 µM): 57.2%
viability, T/C [4]: 42%
viability, T/C (second compound 0.1 µM, first compound 1 µM): 8.37%
viability, T/C (second compound 0.1 µM, first compound 3.16 µM): 0.28%
viability, T/C (second compound 0.1 µM, first compound 10 µM): 1.03%
viability, T/C [5]: 59.1%
viability, T/C (second compound 0.316 µM, first compound 0.1 µM): 51.5%
viability, T/C [6]: 35.7%
viability, T/C (second compound 0.316 µM, first compound 1 µM): 2.63%
viability, T/C (second compound 0.316 µM, first compound 3.16 µM): 0.22%
viability, T/C (second compound 0.316 µM, first compound 10 µM): 0.44%
viability, T/C [7]: 39.8%
viability, T/C (second compound 1 µM, first compound 0.1 µM): 44.7%
viability, T/C [8]: 23.2%
viability, T/C (second compound 1 µM, first compound 1 µM): 0.9%
viability, T/C (second compound 1 µM, first compound 3.16 µM): 1.33%
viability, T/C (second compound 1 µM, first compound 10 µM): 0.81%
viability, T/C [9]: 45.5%
viability, T/C (second compound 3.16 µM, first compound 0.1 µM): 41.9%
viability, T/C [10]: 18.6%
viability, T/C (second compound 3.16 µM, first compound 1 µM): 0.3%
viability, T/C (second compound 3.16 µM, first compound 3.16 µM): 0.21%
viability, T/C (second compound 3.16 µM, first compound 10 µM): 0.18%
viability, T/C [11]: 36.3%
viability, T/C (second compound 10 µM, first compound 0.1 µM): 33.3%
viability, T/C [12]: 14.1%
viability, T/C (second compound 10 µM, first compound 1 µM): 0.24%
viability, T/C (second compound 10 µM, first compound 3.16 µM): 1.65%
viability, T/C (second compound 10 µM, first compound 10 µM): 0.46%
